Measured values taken from patent publication US12590099B2, “Inhibitors of histone deacetylase useful for the treatment or prevention of HIV infection” (Merck Sharp & Dohme LLC, priority 2018, dated 2026).

Tests used:
Format in all cases: biochemical
[1] = target: T1, Recombinant human HDAC1 (Homo sapiens, UniProt Q13547); test: Human HDAC enzyme inhibitor Fluor-de-Lys assay, HDAC1; conditions: recombinant human HDAC1, Fluor-de-Lys assay
T1 construct: FLAG (C); made in house
How it was run: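 Fluor-de-Lys format at room temperature (23° C.): compounds titrated 10-point, 1:3, preincubated with HDAC before substrate addition; HDAC1 run at 0.3 nM enzyme with 20 μM BML-KI104. Developer with excess HDAC inhibitor ends the reaction, and trypsin-liberated AMC fluorescence is the read-out.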

[2] = target: T2, Recombinant human HDAC2 (Homo sapiens, UniProt Q92769); test: Human HDAC enzyme inhibitor Fluor-de-Lys assay, HDAC2; conditions: recombinant human HDAC2, Fluor-de-Lys assay
T2 construct: Full length human HDAC2-FLAG was expressed in baculovirus infected Sf9 cells; FLAG (C); made in house; host or cells: Sf9 (baculovirus)
T2 sequence (Q92769 whole entry): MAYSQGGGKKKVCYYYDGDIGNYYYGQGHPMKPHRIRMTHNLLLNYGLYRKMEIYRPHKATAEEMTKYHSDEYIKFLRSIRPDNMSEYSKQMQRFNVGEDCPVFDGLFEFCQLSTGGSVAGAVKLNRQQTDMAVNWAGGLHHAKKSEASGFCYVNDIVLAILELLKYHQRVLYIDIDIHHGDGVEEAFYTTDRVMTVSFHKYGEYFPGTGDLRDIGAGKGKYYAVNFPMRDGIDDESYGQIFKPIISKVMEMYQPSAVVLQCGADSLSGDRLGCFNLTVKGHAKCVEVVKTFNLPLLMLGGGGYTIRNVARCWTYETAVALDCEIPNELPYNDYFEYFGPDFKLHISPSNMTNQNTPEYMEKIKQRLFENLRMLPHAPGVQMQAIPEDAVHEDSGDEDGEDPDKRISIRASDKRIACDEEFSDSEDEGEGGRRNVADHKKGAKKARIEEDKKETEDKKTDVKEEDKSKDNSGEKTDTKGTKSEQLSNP
How it was run: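 Fluor-de-Lys format at room temperature (23° C.): compounds titrated 10-point, 1:3, preincubated with HDAC before substrate addition. Developer with excess HDAC inhibitor ends the reaction, and trypsin-liberated AMC fluorescence is the read-out.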

[3] = target: T3, Recombinant human HDAC3/SMRT heterodimer (Homo sapiens, UniProt O15379); test: Human HDAC enzyme inhibitor Fluor-de-Lys assay, HDAC3/SMRT; conditions: recombinant human HDAC3/SMRT, Fluor-de-Lys assay
T3 construct: FLAG (C); made in house
T3 sequence (O15379 whole entry): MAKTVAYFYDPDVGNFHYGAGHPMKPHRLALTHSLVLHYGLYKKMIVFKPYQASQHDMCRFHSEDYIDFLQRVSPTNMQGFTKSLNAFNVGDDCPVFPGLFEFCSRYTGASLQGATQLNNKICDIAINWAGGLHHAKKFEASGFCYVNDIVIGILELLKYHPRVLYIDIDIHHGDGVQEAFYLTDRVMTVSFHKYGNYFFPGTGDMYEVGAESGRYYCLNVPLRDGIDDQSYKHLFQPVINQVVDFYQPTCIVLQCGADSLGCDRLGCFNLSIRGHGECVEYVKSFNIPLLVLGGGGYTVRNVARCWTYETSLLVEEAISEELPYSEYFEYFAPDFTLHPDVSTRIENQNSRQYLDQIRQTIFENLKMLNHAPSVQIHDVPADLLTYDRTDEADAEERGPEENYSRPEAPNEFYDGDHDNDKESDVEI
T3 sequence (Q9Y618 1-899 partner limits assumed): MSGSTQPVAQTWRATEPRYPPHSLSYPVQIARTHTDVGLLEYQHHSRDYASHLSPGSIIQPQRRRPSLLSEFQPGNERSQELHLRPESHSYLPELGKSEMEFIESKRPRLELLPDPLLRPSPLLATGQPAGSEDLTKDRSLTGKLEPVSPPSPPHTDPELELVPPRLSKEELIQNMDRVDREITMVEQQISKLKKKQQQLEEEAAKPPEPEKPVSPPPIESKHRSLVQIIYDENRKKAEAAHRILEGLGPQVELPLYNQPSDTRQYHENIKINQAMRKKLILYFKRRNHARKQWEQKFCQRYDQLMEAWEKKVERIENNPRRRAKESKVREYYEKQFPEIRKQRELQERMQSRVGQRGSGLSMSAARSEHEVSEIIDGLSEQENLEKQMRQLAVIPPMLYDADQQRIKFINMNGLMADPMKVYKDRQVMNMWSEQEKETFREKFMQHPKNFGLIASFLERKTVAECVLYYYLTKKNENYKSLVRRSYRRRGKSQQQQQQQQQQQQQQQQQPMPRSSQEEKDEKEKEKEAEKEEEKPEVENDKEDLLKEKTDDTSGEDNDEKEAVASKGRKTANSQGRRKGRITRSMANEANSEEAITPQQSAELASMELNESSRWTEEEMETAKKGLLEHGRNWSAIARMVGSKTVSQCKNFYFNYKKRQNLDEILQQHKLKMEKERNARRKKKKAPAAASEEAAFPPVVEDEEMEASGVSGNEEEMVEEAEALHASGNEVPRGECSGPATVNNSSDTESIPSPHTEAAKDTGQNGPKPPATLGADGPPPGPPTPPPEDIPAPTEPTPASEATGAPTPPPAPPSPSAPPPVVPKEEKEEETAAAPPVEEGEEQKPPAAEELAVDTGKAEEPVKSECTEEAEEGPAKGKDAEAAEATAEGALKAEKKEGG

[4] = target: T4, HDAC6 (Homo sapiens, UniProt Q9UBN7); test: Human HDAC enzyme inhibitor Fluor-de-Lys assay, HDAC6; conditions: HDAC6, Fluor-de-Lys assay
T4 sequence (Q9UBN7 1-1215): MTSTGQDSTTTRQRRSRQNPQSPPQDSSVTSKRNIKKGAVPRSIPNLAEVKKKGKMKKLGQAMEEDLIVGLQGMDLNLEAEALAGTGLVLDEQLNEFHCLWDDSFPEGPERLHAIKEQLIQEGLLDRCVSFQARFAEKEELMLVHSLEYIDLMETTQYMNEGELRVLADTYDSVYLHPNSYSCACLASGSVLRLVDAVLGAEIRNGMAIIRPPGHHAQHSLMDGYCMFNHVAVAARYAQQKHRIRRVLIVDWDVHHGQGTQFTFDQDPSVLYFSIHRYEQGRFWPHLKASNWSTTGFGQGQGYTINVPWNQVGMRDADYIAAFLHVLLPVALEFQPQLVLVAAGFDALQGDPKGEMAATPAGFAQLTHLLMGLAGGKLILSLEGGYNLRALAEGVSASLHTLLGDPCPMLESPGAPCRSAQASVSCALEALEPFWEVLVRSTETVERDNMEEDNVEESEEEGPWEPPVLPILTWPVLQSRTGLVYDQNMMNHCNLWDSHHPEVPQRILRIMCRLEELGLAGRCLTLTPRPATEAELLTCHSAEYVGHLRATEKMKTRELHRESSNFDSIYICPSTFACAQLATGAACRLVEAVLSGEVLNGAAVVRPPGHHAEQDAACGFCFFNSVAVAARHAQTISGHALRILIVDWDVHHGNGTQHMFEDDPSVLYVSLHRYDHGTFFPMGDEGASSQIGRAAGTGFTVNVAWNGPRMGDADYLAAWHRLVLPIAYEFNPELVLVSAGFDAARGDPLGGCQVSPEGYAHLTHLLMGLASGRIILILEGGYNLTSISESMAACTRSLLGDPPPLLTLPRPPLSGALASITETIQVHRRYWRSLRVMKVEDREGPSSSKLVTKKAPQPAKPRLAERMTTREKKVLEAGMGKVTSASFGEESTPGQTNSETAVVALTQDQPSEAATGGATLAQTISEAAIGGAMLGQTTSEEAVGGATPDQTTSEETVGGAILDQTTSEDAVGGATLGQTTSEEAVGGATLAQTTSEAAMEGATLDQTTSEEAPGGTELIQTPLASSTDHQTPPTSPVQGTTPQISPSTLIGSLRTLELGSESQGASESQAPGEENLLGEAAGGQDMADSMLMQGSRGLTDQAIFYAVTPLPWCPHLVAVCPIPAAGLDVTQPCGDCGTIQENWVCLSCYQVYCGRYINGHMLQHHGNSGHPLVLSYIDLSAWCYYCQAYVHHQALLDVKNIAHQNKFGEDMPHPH

T1 sequence (Q13547 whole entry): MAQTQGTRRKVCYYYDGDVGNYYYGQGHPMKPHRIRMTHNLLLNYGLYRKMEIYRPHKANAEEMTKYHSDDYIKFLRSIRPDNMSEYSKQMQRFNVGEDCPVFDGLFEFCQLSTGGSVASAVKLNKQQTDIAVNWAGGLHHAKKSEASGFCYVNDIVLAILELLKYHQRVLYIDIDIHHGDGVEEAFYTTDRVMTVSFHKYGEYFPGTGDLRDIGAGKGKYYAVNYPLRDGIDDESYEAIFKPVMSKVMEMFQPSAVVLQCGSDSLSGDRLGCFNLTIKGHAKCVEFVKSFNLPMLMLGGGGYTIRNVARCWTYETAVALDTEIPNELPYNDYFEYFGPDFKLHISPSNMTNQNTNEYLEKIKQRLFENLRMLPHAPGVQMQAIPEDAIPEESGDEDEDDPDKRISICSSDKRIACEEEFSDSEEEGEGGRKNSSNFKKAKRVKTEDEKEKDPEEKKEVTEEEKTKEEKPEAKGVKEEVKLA

Question: Which results are given for `CCC(=O)CCCCC[C@H](NC(=O)C1CC12CCOCC2)c1ncc(-c2cc3ccc(C)nc3cc2OC)[nH]1` (single isomer, unassigned) [Compound 407]?
Answer: IC50 [1]: 0.0009 µM; IC50 [2]: 0.0202 µM; IC50 [3]: 0.00368 µM; IC50 [4]: > 0.9 µM

Question: With `CCC(=O)CCCCC[C@H](NC(=O)C1CC12CCOCC2)c1ncc(-c2cc3ccc(C)nc3cc2OC)o1` (single isomer, unassigned) [Compound 409] as the molecule, how does the IC50 [1] read?
Answer: 0.0105 µM

Question: What about the IC50 [2] of the same molecule?
Answer: 0.1 µM

Question: What about the IC50 [4] of the same molecule?
Answer: > 0.9 µM

Question: What does the source list for `CCC(=O)CCCCC[C@H](NC(=O)C1CC12CCOCC2)c1ncc(-c2cc3ccc(C)nc3cc2OC)o1` (single isomer, unassigned) [Compound 410]?
Answer: IC50 [1]: 0.0175 µM; IC50 [2]: 0.143 µM; IC50 [4]: > 0.9 µM

Question: With `CCC(=O)CCCCC[C@H](NC(=O)C1CC12CCOCC2)c1ncc(-c2cc3ccc(C)nc3cc2OC)[nH]1` (single isomer, unassigned) [Compound 413] as the molecule, how does the IC50 [1] read?
Answer: 0.0162 µM

Question: And the IC50 [2]?
Answer: 0.155 µM

Question: What about the IC50 [3] of the same molecule?
Answer: 0.0619 µM

Question: What about the IC50 [4] of the same molecule?
Answer: > 0.9 µM

Question: Which results are given for `CCC(=O)CCCCCC(NC(=O)C1CCC2(CC1)OC(=O)c1ncccc12)c1nnc(-c2cc3ccccc3nc2OC)o1` (stereo not drawn) [Compound 365]?
Answer: IC50 [1]: 0.0612 µM; IC50 [2]: 0.208 µM; IC50 [3]: 0.0232 µM; IC50 [4]: 1.94 µM

Question: With `CCC(=O)CCCCC[C@H](NC(=O)[C@H]1CC[C@@]2(CC1)OC(=O)c1cccnc12)c1nnc(-c2cc3ccccc3nc2OC)o1` [Compound 366] as the molecule, how does the IC50 [1] read?
Answer: 0.0894 µM

Question: And the IC50 [2]?
Answer: 0.321 µM

Question: What about the IC50 [3] of the same molecule?
Answer: 0.0373 µM

Question: And the IC50 [4]?
Answer: 2.76 µM

Question: How did the IC50 [1] turn out when `CCC(=O)CCCCC[C@H](NC(=O)[C@H]1CC[C@]2(CC1)OC(=O)c1ncccc12)c1nnc(-c2cc3ccccc3nc2OC)o1` [Compound 367] was run?
Answer: 0.0259 µM

Question: And the IC50 [2]?
Answer: 0.0676 µM

Question: What about the IC50 [3] of the same molecule?
Answer: 0.0107 µM

Question: And the IC50 [4]?
Answer: 2.11 µM

Question: With `CCC(=O)CCCCC[C@H](NC(=O)[C@H]1CC[C@]2(CC1)OC(=O)c1cccnc12)c1nnc(-c2cc3ccccc3nc2OC)o1` [Compound 368] as the molecule, how does the IC50 [1] read?
Answer: 0.0505 µM

Question: And the IC50 [2]?
Answer: 0.149 µM

Question: What about the IC50 [3] of the same molecule?
Answer: 0.0206 µM

Question: And the IC50 [4]?
Answer: 2.38 µM

Question: `CCC(=O)CCCCC[C@H](NC(=O)C1=NOC2(CCN(C(C)C)CC2)C1)c1nnc(-c2cc3ccccc3nc2OC)o1` [Compound 369] was tested. Which IC50 [1] did it give?
Answer: 0.0185 µM

Question: And the IC50 [2]?
Answer: 0.0682 µM

Question: What about the IC50 [4] of the same molecule?
Answer: 2.5 µM

Question: What does the source list for `CCC(=O)CCCCC[C@H](NC(=O)C1=NOC2(CCN(C)CC2)C1)c1nnc(-c2cc3ccccc3nc2OC)o1` [Compound 370]?
Answer: IC50 [1]: 0.0108 µM; IC50 [2]: 0.0418 µM; IC50 [3]: 0.00887 µM; IC50 [4]: 1.74 µM

Question: How did the IC50 [1] turn out when `CCC(=O)CCCCC[C@H](NC(=O)C1=NOC2(CCN(S(C)(=O)=O)CC2)C1)c1nnc(-c2cc3ccccc3nc2OC)o1` [Compound 371] was run?
Answer: 0.0867 µM

Question: And the IC50 [2]?
Answer: 0.287 µM

Question: What about the IC50 [4] of the same molecule?
Answer: 4.66 µM

Question: With `CCC(=O)CCCCC[C@H](NC(=O)[C@H]1CC[C@@]2(CC1)OC(=O)c1ccncc12)c1ncc(-c2ccccc2)[nH]1` [Compound 372] as the molecule, how does the IC50 [1] read?
Answer: 0.0925 µM

Question: And the IC50 [2]?
Answer: 0.416 µM

Question: And the IC50 [3]?
Answer: 0.0141 µM

Question: What about the IC50 [4] of the same molecule?
Answer: 10.2 µM

Question: What does the source list for `CCC(=O)CCCCC[C@H](NC(=O)[C@H]1CC[C@@]2(CC1)OC(=O)c1cnccc12)c1ncc(-c2ccccc2)[nH]1` [Compound 373]?
Answer: IC50 [1]: 0.0956 µM; IC50 [2]: 0.423 µM; IC50 [3]: 0.0188 µM; IC50 [4]: 10.1 µM

Question: For `CCC(=O)CCCCC[C@H](NC(=O)[C@H]1CC[C@@]2(CC1)OC(=O)c1ncccc12)c1ncc(-c2ccccc2)[nH]1` [Compound 374], which IC50 [1] is on record?
Answer: 0.0927 µM

Question: And the IC50 [2]?
Answer: 0.423 µM

Question: And the IC50 [3]?
Answer: 0.0158 µM

Question: What about the IC50 [4] of the same molecule?
Answer: 11.2 µM

Question: `CCC(=O)CCCCC[C@H](NC(=O)[C@H]1CC[C@@]2(CC1)OC(=O)c1cccnc12)c1ncc(-c2ccccc2)[nH]1` [Compound 375] was tested. Which IC50 [1] did it give?
Answer: 0.117 µM

Question: What about the IC50 [2] of the same molecule?
Answer: 0.479 µM

Question: What about the IC50 [3] of the same molecule?
Answer: 0.0199 µM

Question: And the IC50 [4]?
Answer: 10.2 µM

Question: For `CCC(=O)CCCCC[C@H](NC(=O)[C@H]1CC[C@]2(CC1)OC(=O)c1ccncc12)c1ncc(-c2ccccc2)[nH]1` [Compound 376], which IC50 [1] is on record?
Answer: 0.0499 µM

Question: What about the IC50 [2] of the same molecule?
Answer: 0.239 µM

Question: What about the IC50 [3] of the same molecule?
Answer: 0.00902 µM

Question: What about the IC50 [4] of the same molecule?
Answer: 10.8 µM
